# Results published in paper PMC8854621, “Functionally selective signaling and broad metabolic benefits by novel insulin receptor partial agonists” (Nature Communications, 2022).
# “And” between values parts separate entries of the source, which are not always exact repeats. Equal entries are not always repeated. Where two headings read alike, the source gives them in different places.
# What was measured:
# [1] = tested on: differentiated mouse 3T3 L1 adipocytes; test: [14C]-2-deoxyglucose uptake in differentiated mouse 3T3 L1 adipocytes; assay type: cell-based; conditions: four-parameter fit; read-out: 2DG uptake in 3T3 L1 adipocytes EC50
# Protocol: and phosphatase inhibitors for 30 minutes. The lysates were applied to the modified MSD Elisa assays to measure phosphorylation of different tyrosine residues on insulin receptor. Briefly, lysates were added to custom MSD IR plates (MSD cat# N45CA-1). Phosphorylation of tyrosine on IR were measured using antibody against pY960 (rabbit mAb, Cell Applications #CB4378) or pY1345 (rabbit mAb 14A4, Cell Signaling #3026), respectively in combination with SULFO-tag anti rabbit antibody (MSD cat# R32AB). For pY1150, cell lysate was added to MSD high binding plate […]
# Signaling #3024). The bound insulin receptor was detected using combination of rabbit anti-insulin receptor b (C-19, Santa Cruz sc-711) and SULFO-tag anti rabbit antibody.
# 3. IGF-1R binding, cellular proliferation in SaoS2 cells and 2-deoxyglucose (2DG) update in mouse
# IGF-1R affinity of IRPAs was assessed in a whole cell binding assay using a cell line stably expressing […]
# activities of IRPAs as measured by EdU incorporation to SAOS2/B10 cells using the Click-it EdU (5-Ethynyl-2′-deoxyuridine; ThermoFisher Scientific) assay. To assess IRPA function downstream of the signaling cascade, [14C]-2-deoxyglucose cellular uptake in the differentiated mouse 3T3 L1 adipocytes was measured using standard protocol (3). […]
# measured (S4a). Mouse white adipose tissue pAkt levels (S4b) were quantified in the same manner as other tissues […]
# AAV-LIRKO and WT mice = test: Glucose lowering in AAV-LIRKO versus WT mice; assay type: in vivo, mouse; conditions: glucose lowering efficacy; RHI 30, Levemir 24, IRPA-5 120, IRPA-6 60 nmol/kg
# Protocol: Male C57BL/6 mice and Sprague-Dawley rats were obtained from Taconic Farms (Germantown, NY, USA). AAV-LIRKO mice were developed by AAV-Cre injection into conditional IR KO mice (B6.129S4(FVB)-Insr^tm1Khn/J from Jackson Laboratory; Fig. S3). To generate streptozotocin (STZ)-induced diabetic mouse, male C57BL/6 mice were treated with a single intraperitoneal (i.p.; 100 mg/kg) injection of STZ (Sigma Chemical, St. Louis, MO, USA).
# 6. Mouse models and related studies
# LIRKO mouse model generation
# Jackson Laboratory, #6955). Male mice at 8 weeks of age maintained on chow diet (Teklad 7002) were administered AAV-cre via tail vein injection as doses indicated on Fig. S4. Mice were studied 4 weeks following AAV injection for ITT or put on HFD (Research Diets, D12492) for 4 weeks before glucose lowering studies were executed.
# IRPA studies in HFD-STZ mice
# HFD-STZ mice were developed as previously described 40 and were groups based on their glucose ranges. Acute glucose lowering efficacy of IRPAs in healthy and HFD -STZ mice were evaluated upon administration of escalating doses of test molecules, which was expressed as area over the curve (AOC) relative to vehicle.
# Intact, male Beagle dogs (2-8 years old) were either purchased from Marshall Bioresources or acquired from other in-house programs. […]
# ApoE KO mice [2] = test: Body weight in ApoE KO mice, 8 weeks s.c. pump; assay type: in vivo, mouse; conditions: Fig. 6e; one value per animal
# Protocol: (§1) Fig. 6 Beneficial IRPA effects beyond glycemic control. Glucose, body weight and hepatic triglyceride (TG) lowering by IRPA alone or in combination with a GLP-1 analog in mouse studies (a–d). Glucose lowering acutely (a) or during chronic QD dosing (b; 2-h post dose on day 11) in diabetic mice. Body weight (c) and liver triglyceride (d) changes at the end of 14-day QD dosing. […] Data is presented as mean ± SD. N = 8. p value is calculated using one-way ANOVA with Tukey’s multiple comparisons test: b1 < 0.001 vs. vehicle, b2 < 0.001 and b3 = 0.002 for indicated comparisons; c1 = 0.008 and c2 = 0.0001 vs. vehicle, c3 < 0.0001 for indicated comparisons; d1 < 0.001 vs. vehicle. IRPA reduces aortic plaque in ApoE KO mice (e–h). There was no significant body weight or cholesterol change from baseline by RHI or IRPA-3 (e, g). […] Data is presented as mean ± SD. p value is calculated using one-way ANOVA with Tukey’s multiple comparisons test: f1 = 0.0034 and f2 = 0.035 vs. vehicle; h1 = 0.046 vs. vehicle. […] Source data are provided as a Source Data file. […]
# ApoE KO mice [3] = test: Aortic plaque in ApoE KO mice (Sudan IV staining, en face aorta); assay type: in vivo, mouse; conditions: Fig. 6h; one value per animal
# Protocol: as §1
# SAOS2/B10 cells = test: Cellular proliferation, EdU incorporation (Click-it EdU); assay type: cell-based
# Source text: 3. […]
# Ethynyl-2′-deoxyuridine; ThermoFisher Scientific) assay. […]
substance,measurement,setting,value
"RHI: recombinant human insulin, purchased from commercial sources",EC50,[1],6.6 nM
same,AUC reduction in AAV-LIRKO mice compared to WT mice,AAV-LIRKO and WT mice,30%
same,Body ewight change (%) from pretreatment,ApoE KO mice [2],13.2% and 5.48% and 7.48% and 4.52% and 8.31% and 18.95% and 5.38% and -7.57% and 17.6% and 5.39% and 19.87% and 3% and 15.56%
same,Aortic plaque area (% to total surface),ApoE KO mice [3],33.7% and 21.2% and 20.3% and 22.7% and 23.8% and 26.1% and 21.1% and 26.6% and 22.5% and 26.7% and 29.0% and 23.3%
same,EC50,"SAOS2/B10 cells; geometric mean of all independent titrations, EdU incorporation, four-parameter fit, read-out: Cell Proliferation Assay Total Ave EC50",6.53 nM
same,EC50,"SAOS2/B10 cells; titration 1, read-out: Cell Proliferation Assay EC50-1",12.9 nM
same,EC50,"SAOS2/B10 cells; titration 2, read-out: Cell Proliferation Assay EC50-2",3.1 nM
same,EC50,"SAOS2/B10 cells; titration 3, read-out: Cell Proliferation Assay EC50-3",9.5 nM
same,EC50,"SAOS2/B10 cells; titration 4, read-out: Cell Proliferation Assay EC50-4",9.5 nM
same,EC50,"SAOS2/B10 cells; titration 5, read-out: Cell Proliferation Assay EC50-5",3.3 nM
